{"source": "patent US6599943B1", "about": "“Use of hydroxyguanidines” (WaPharm AB, priority 1996, dated 2003)", "key": {"[1]": {"molecular_target": "T1, bovine milk xanthine oxidase (Bos taurus, UniProt P80457)", "settings": "20 μM allopurinol, 100 μM xanthine, 0.004 units/ml xanthine oxidase", "protocol": "Capacity of allopurinol to inhibit the reduction of hydroxyguanidines by xanthine oxidase. […] In these tests varying amounts of guanoxabenz was added to assays yielding 150 μl final volumes and containing final concentrations 0.004 units/ml of bovine milk xanthine oxidase (Sigma, St. Louis, MO., USA), 100 μM xanthine, 20 μM allopurinol, 50 pM α2-adrenoceptors (in HT29 cell membranes), 33 mM Tris HCl, 1 mM EDTA, pH 7.5, and incubating for 1 hour at 25° C."}, "[2]": {"system": "rat hearts (reperfusion injury)", "assay": "Reperfusion injury of the heart: coronary artery occlusion/reperfusion arrhythmias", "assay_type": "in vivo", "settings": "for Ventricular fibrilation Insidence (%) / Ventricular fibrilation Insidence (number of animals) / Ventricular tachycardia Insidence (%) / Ventricular tachycardia Insidence (number of animals) / Ventricular fibrilation Duration / Ventricular tachycardia Duration / Ventricular fibrilation Duration (s) / Ventricular tachycardia Duration (s): 20 min reperfusion; for Ventricular fibrilation Duration / Ventricular tachycardia Duration / Ventricular fibrilation Duration (s) / Ventricular tachycardia Duration (s): mean ±SEM; for effect on incidence and duration of ventricular tachycardias and fibrillations and on mortality, in words: versus control, p<0.05", "from_the_text": "Capacity of a hydroxyguanidine (PR5) to afford a tissue protective effect in the heart. […] In this model the coronary arteries of rat hearts were occluded, and after some time reperfusion was allowed to occur. During reperfusion events of cardiac arrhythmias are observed. They are well known to be related to the accumulation of oxygen derived free radicals. These arrhythmias are monitored in the animals treated with PR5 and in control animals either receiving no drug or allopurinol. Allopurinol was used as a control because it is well known from the litterature as an agent capable of preventing the generation of oxygen derived free radicals. In brief, rats were anaesthetised with sodium pentobarbital and ventilated with air using a respirator for small animals at a pressure 15-20 cm H2O and a […] rate of 60 strokes/min. ECG (electrocardiogram) and systemic blood pressure was registered on a Physiograph DMP-4B (Narco Bio-Systems, Houston, USA) using, respectively, a standard lead II and a pressure transducer PR-1500 (Narco Bio-Systems, Houston, USA) contected via a catheter to the left carotid artery. The chest was opened via the fourth intercostal space, the pericardium incised and a sling (4/0 silk Medicor, Budapest, Hungary) was placed around the left coronary artery close to its origin. The silk ligature was passed through a piece of plastic tubing, the chest was partially closed and the animal was allowed to recover for 10 min. PR-5, dissolved in 0.9% NaCl, was then injected i.v. 10 min before the occlusion of the coronary artery at doses 1, 3 or 10 mg/kg body weight. As control served the same volume of 0.9% NaCl. The coronary artery was occluded for a period of 10 min by applying tension to the ligature and pressing the tube onto the heart surface. Reperfusion was initiated by removing the clamp and releasing the tension on the ligature and allowing the perfusion to continue for 20 min. Ventricular ectopic activity was assessed during the 20 min reperfusion period by measuring the duration of ventricular tachycardias and ventricular fibrillations from the ECG curves. The results are shown in Table 2, where the results are presented as mean ±SEM (in seconds) for the total duration of ventricular tachycardias and ventricular fibrillations during the 20 min reperfusion period, (or until eventual death of the animal). The incidence of animals showing ventricular tachycardia and ventricular fibrillation are also given Table 2 as the number of animals showing ventricular tachycardia and ventricular fibrillation. Figures in parenthese relate to incidents expressed in % of the total number of animals.\nIn Table 2 a star “*” denotes a significant difference from the control at p<0.05 using the appropriate statistical test. Alp=allopurinol. n=number of animals tested."}, "[3]": {"molecular_target": "T1, bovine milk xanthine oxidase", "assay": "Capacity to sustain oxidation of xanthine by xanthine oxidase in the absence of oxygen, spectrophotometric", "assay_type": "biochemical", "set-up": "host or cells: bovine milk", "method": "Capacities of a series of hydroxyguanidine to sustain the oxidation of xanthine by xanthine oxidase in the absence of oxygen. The capacities of various hydroxyguanidines to sustain the oxidation of xanthine was assayed by using a spectrophotometric method. In this method bovine milk xanthine oxidase was injected to a Helma® sealable cuvette for anaerobic application thereby creating 1 ml of a reaction mixture that contained reagents as follows: 50 μM of a hydroxyguanidine, 50 μM xanthine, 0.05 units/ml bovine milk xanthine oxidase, 50 mM Tris and 1.5 mM EDTA; the pH of the reaction mixture being 7.5, and the temperature 20° C. Anaerobic conditions were assured by pre-gassing all solutions used for 5-10 min, with nitrogen. The rate of formation of uric acid was monitored spectrophotometrically by measuring the increase in absorbance at 295 nm (the absorption maximum for uric acid) at intervals. The relative capacities of the hydroxyguanidines to sustain oxidation of xanthine were estimated from the derivative of the initial linear phase of the curves. To obtain blank readings an equal volume of the solvent of the hydroxyguanidine (water) was added to the reaction mixture in separate experiments and the initial rate of absorbance change was substracted from the rate readings of the tested hydroxyguanidine.\nExemplary initial rates for the rate of the support of the oxidation of xanthine obtained by assaying the exemplary hydroxyguanidines listed above by the method in the present example are furthermore given in Table 2: […]"}, "[4]": {"system": "rat spleen tissue", "assay": "Formation of uric acid in spleen tissue under anaerobic conditions, HPLC", "method": "Capacity of a hydroxyguanidine (PR5) to sustain the formation of uric acid in tissues. […] Pieces of 0.6 g of rat spleen tissue were incubated in 7.5 ml argon-saturated Tris-Ringer buffer (4 mM KCl, 100 mM NaCl, 2 mM CaCl2, 2 mg/ml glucose and 40 mM TrisHCl, pH 7.4) in 50 ml Erlenmeyer flasks at 37° C., care being taken to maintain an atmosphere of argon above the incubations. As aerobic control served identical incubations, except that the buffers were saturated with air and the incubations performed under air. After 30 min the flasks were opened and the tissues minced to obtain tissue cubes with about 1 mm sides. […] The supernatants were then centrifuged using Ultrafree-MC Biomax-10 Millipore filtration devices at 5000×g for 0.5 hr in order to obtain an essentially particle free preparation which was being kept at −20° C. until analysed for the uric acid content using HPLC.\nFor analysing the uric acid content the above preparations were thawed and 0.05 ml aliquots were injected onto Waters 2690 Separation Module using a 2.1×250 mm Vydac RP C18, 90A, 201HS1010 column using a linear gradient of 10 mM KH2PO4 (A) and 10 mM KH2PO4 in 50% (v/v) methanol/water (B) (both at pH 4.55 adjusted with phosphoric acid). […] The uric acid peak was eluted after 13 min and was identified and detected according to the spectrum of a standard uric acid reference."}, "[5]": {"settings": "1 mg/kg i.v. 10 min before occlusion"}, "[6]": {"settings": "3 mg/kg i.v. 10 min before occlusion"}}, "note": "Structures can show the parent of a compound that is named as a salt. Marks after values point to notes of the source that are not given here."}
{"compound": "Oc1ncnc2[nH]ncc12", "note": "[Allopurinol, 1H-pyrazolo[3,4-d]pyrimidin-4ol, reference compound]", "values": [{"measurement": "decrease in the apparent affinity of guanoxabenz on addition of allopurinol", "setting": "[1]", "result": "about 24 fold"}, {"measurement": "Mortality Insidence (%)", "setting": "[2]; 10 mg/kg", "result": 7, "unit": "%"}, {"measurement": "Mortality Insidence (number of animals)", "setting": "[2]; 10 mg/kg", "result": 1}, {"measurement": "Ventricular fibrilation Insidence (%)", "setting": "[2]; 10 mg/kg", "result": 50, "unit": "%"}, {"measurement": "Ventricular fibrilation Insidence (number of animals)", "setting": "[2]; 10 mg/kg", "result": 7}, {"measurement": "Ventricular tachycardia Insidence (%)", "setting": "[2]; 10 mg/kg", "result": 64, "unit": "%"}, {"measurement": "Ventricular tachycardia Insidence (number of animals)", "setting": "[2]; 10 mg/kg", "result": 9}, {"measurement": "Ventricular fibrilation Duration", "setting": "[2]; 10 mg/kg", "result": "30 ± 10", "unit": "s"}, {"measurement": "Ventricular tachycardia Duration", "setting": "[2]; 10 mg/kg", "result": "59 ± 12", "unit": "s"}, {"measurement": "effect on incidence and duration of ventricular tachycardias and fibrillations and on mortality, in words", "setting": "[2]", "result": "reduces these indices, although to a lesser extent than 3-10 mg/kg of PR5"}]}
{"compound": "COc1ccc(C=NNC(=N)NO)c(Cl)c1OC", "note": "[PR5, N-(3,4-Dimethoxy-2-chlorobenzylideneamino)-N′-hydroxyguanidine tosylate]", "values": [{"measurement": "V = 1000 × (Δabs 295 nm) min^−1 (initial rate of the support of the oxidation of xanthine)", "setting": "[3]; 50 μM hydroxyguanidine, 50 μM xanthine, 0.05 units/ml xanthine oxidase, anaerobic, pH 7.5, 20° C., blank subtracted", "result": "96 1000 × (Δabs 295 nm) min^−1"}, {"measurement": "activity / capacity to undergo reduction (reaction A), in words", "setting": "[3]; as disclosed in Example 7", "result": "high activity"}, {"measurement": "Mortality Insidence (%)", "setting": "[2]; 1 mg/kg i.v.", "result": 14, "unit": "%"}, {"measurement": "Mortality Insidence (number of animals)", "setting": "[2]; 1 mg/kg i.v.", "result": 2}, {"measurement": "Ventricular tachycardia Insidence (%)", "setting": "[2]; [5]", "result": 79, "unit": "%"}, {"measurement": "Ventricular tachycardia Insidence (number of animals)", "setting": "[2]; [5]", "result": 11}, {"measurement": "Ventricular fibrilation Insidence (%)", "setting": "[2]; 1 mg/kg i.v.", "result": 57, "unit": "%"}, {"measurement": "Ventricular fibrilation Insidence (number of animals)", "setting": "[2]; 1 mg/kg i.v.", "result": 8}, {"measurement": "Ventricular fibrilation Duration", "setting": "[2]; 1 mg/kg i.v.", "result": "34 ± 9", "unit": "s"}, {"measurement": "Ventricular tachycardia Duration", "setting": "[2]; 1 mg/kg i.v.", "result": "61 ± 11", "unit": "s"}, {"measurement": "Mortality Insidence (%)", "setting": "[2]; 3 mg/kg i.v.", "result": "0 (0)* %"}, {"measurement": "Mortality Insidence (number of animals)", "setting": "[2]; 3 mg/kg i.v.", "result": "0 (0)*"}, {"measurement": "Ventricular tachycardia Insidence (%)", "setting": "[2]; [6]", "result": 64, "unit": "%"}, {"measurement": "Ventricular tachycardia Insidence (number of animals)", "setting": "[2]; [6]", "result": 9}, {"measurement": "Ventricular fibrilation Insidence (%)", "setting": "[2]; 3 mg/kg i.v.", "result": 43, "unit": "%"}, {"measurement": "Ventricular fibrilation Insidence (number of animals)", "setting": "[2]; 3 mg/kg i.v.", "result": 6}, {"measurement": "Ventricular fibrilation Duration (s)", "setting": "[2]; 3 mg/kg i.v.", "result": "20 ± 7* s"}, {"measurement": "Ventricular tachycardia Duration (s)", "setting": "[2]; 3 mg/kg i.v.", "result": "38 ± 7* s"}, {"measurement": "Mortality Insidence (%)", "setting": "[2]; 10 mg/kg", "result": 7, "unit": "%"}, {"measurement": "Mortality Insidence (number of animals)", "setting": "[2]; 10 mg/kg", "result": 1}, {"measurement": "Ventricular fibrilation Insidence (%)", "setting": "[2]; 10 mg/kg", "result": 36, "unit": "%"}, {"measurement": "Ventricular fibrilation Insidence (number of animals)", "setting": "[2]; 10 mg/kg", "result": 5}, {"measurement": "Ventricular tachycardia Insidence (%)", "setting": "[2]; 10 mg/kg", "result": 57, "unit": "%"}, {"measurement": "Ventricular tachycardia Insidence (number of animals)", "setting": "[2]; 10 mg/kg", "result": 8}, {"measurement": "Ventricular fibrilation Duration (s)", "setting": "[2]; 10 mg/kg", "result": "17 ± 5* s"}, {"measurement": "Ventricular tachycardia Duration (s)", "setting": "[2]; 10 mg/kg", "result": "34 ± 7* s"}, {"measurement": "effect on incidence and duration of ventricular tachycardias and fibrillations and on mortality, in words", "setting": "[2]", "result": "significant decrease"}, {"measurement": "uric acid in original incubation medium", "setting": "[4]; 0.5 mM PR5, anaerobic (argon), 60 min, 37° C.", "result": 285.5, "unit": "µmol/L"}, {"measurement": "formation of uric acid under the anaerobic conditions, in words", "setting": "[4]; 0.5 mM PR5, compared with aerobic control", "result": "restored completely to that of the aerobic control"}]}
